From US10220029B2, “Pharmaceutical composition comprising glutarimide derivatives and use thereof in the treatment of eosinophilic diseases” (OBSCHESTVO S ORGANICHENNOI OTVETSTVENNOSTIYU …, priority 2013, dated 2019)
Marks after values point to notes of the source that are not given here.

How the values were obtained:
Type in all cases: in vivo, guinea pig
[1] = system: model of bronchial asthma in guinea pigs; test: Content of cell elements in BAL in the model of bronchial asthma in guinea pigs
Experimental: (§1) Bronchial asthma in guinea pigs was induced by a standard method [Ricciardolo F L, Nijkamp F, De Rose V, Folkerts G. The guinea pig as an animal model for asthma// Current Drug Targets. 2008 June; 9(6):452-65]. The animals were immunized by one parenteral administration of 0.5 mL of a solution comprising 100 μg/mL ovalbumin (Sigma) and 100 mg/mL aluminium hydroxide. Intact animals received a physiological saline solution in an amount of 0.5 mL.
(§2) On days 29, 30 and 31, hyperactivity of the respiratory airways was provoked by inhalation administration of ovalbumin in ascending concentrations of 0.1, 0.3, and 0.5 mg/mL on days 1, 2, and 3 of the provocation, respectively. The inhalation lasted 5 minutes or until asphyxia symptoms became apparent (fall to one side). On day 32, the animals received a challenging dose of ovalbumin (1 mg/mL) for 5 minutes, while assessing a bronchospastic reaction.
(§3) The studied compounds were administered to the animals once daily every day for 6 or 10 days; the administration was terminated two days before the administration of the challenging dose of antigen.
(§4) The bronchoalveolar lavage (BAL) and cardiac cavity blood were derived from the animals 24 hours after administration of the challenging dose. The BAL was collected under anesthesia by lavaging the lungs with 5 mL of a physiological saline solution heated to 37° C. through the trachea, using a syringe dosing device.
The absolute number of cell elements in 1 μL of the lavage (cytosis) was counted in the bronchoalveolar lavage, using the Goryaev camera. Then, the BAL was centrifuged at 200 g for 10 minutes. The residue was used to prepare swabs that were fixed in methanol and stained according to Romanovsky-Giemsa to count endopulmonary cytogram.
(§5) The study comprised 3 experiments, wherein the first one was directed to the evaluation of the effect of claimed compounds 1-6 on the cell composition of the BAL, the second and the third experiments were aimed at evaluating the effect of compounds 1 and 2 on the cell composition of the BAL, the cell composition of the blood, and on the bronchospasm severity.

[2] = system: model of bronchial asthma in guinea pigs; test: Content of cell elements in the blood in the model of bronchial asthma in guinea pigs; details: Table 6 Experiment No. 1, 10 times, n = 8
Experimental: as §1, §2, §3, §4
The blood was analyzed with a hemocytometer to determine leykoformula.
as §5

[3] = system: model of bronchial asthma in guinea pigs; test: Severity of bronchospasm in the model of bronchial asthma in guinea pigs; details: Experiment No. 1, 10 times, n = 8
Experimental: as §1, §2, §3
The bronchospastic reaction was assessed by a change in the rate and depth of the respiratory movements and by the asphyxia symptom such as fall to one side. Spirogram was registered by laboratory experimental equipment (ADInstruments, Australia), using a base recording station (PowerLab 8sp.) and software LabCart. The registration was made using airflow sensors for laboratory animals and a spirograph with an integrated amplifier (ADInstruments).
as §5

[4] = system: model of allergic rhinitis in guinea pigs; test: Clinical manifestations of allergic rhinitis in guinea pigs (sneezes, nose scratchings); details: 14 mg/kg intragastric, 3 times; 2 hours after last ovalbumin; n = 8
Experimental: The model of allergic rhinitis in guinea pigs was realized by a standard method [Vishnu N. Thakare, M. M. Osama, Suresh R. Naik. […] 2013 September; 17(1):18-25].
Guinea pigs (250-300 g) were immunized with 4-time (on days 0, 7, 14, and 21) intragastric administration of ovalbumin (100 μg/pig) and aluminium hydroxide (5 mg/pig), both of which were diluted and suspended in a physiological saline solution. […], a solution of ovalbumin (60 mg/mL) was administered intranasally to each nostril of the animals at a dose 20 μL. On day 35, the animals received subcutaneously an ovalbumin solution (200 μg/mL, 25 μL); the animal back was previously shaved in the site of administration. Swelling and redness at the injection site served as a support of sensibilisation. On day 42 of the study, an ovalbumin solution (60 mg/mL, 20 μL/nostril) was administered intranasally. A group of pseudoimmunized animals was formed to control the formation of exactly allergic inflammation: on days 0, 7, 14, and 21, the pigs received a solution of aluminium hydroxide (5 mg/pig), and on days 28 and 35, they received a physiological saline solution, and on day 42, a solution of ovalbumin (60 mg/mL, 20 μL/nostril).
The studied compounds (14 mg/kg) were administered 3 times by the intragastric route: 48, 24, and 1 hour before the last administration of ovalbumin. The reference preparation, dexamethasone, was administered one time by the intragastric route, 3 hours before the last intranasal administration of ovalbumin.
Clinical manifestations, such as the number of sneezes and nose scratchings, were registered for 2 hours after the last administration of ovalbumin. Nasal lavage was taken 24 hours after the last administration of ovalbumin, and in this lavage, the total lymphocyte count and leukocyte formula were determined. The number of guinea pigs in a group was 8.

[5] = Table 4, 14 mg/kg, 10 times of administration, n = 9
[6] = Table 5 Experiment No. 1, 0.045 mg/kg, 10 times, n = 8
[7] = Table 5 Experiment No. 1, 0.14 mg/kg, 10 times, n = 8
[8] = Table 5 Experiment No. 1, 14 mg/kg, 10 times, n = 8

Q: With `O=C1CCCC(=O)N1CCc1cnc[nH]1` [Compound 1, 1-(2-(1H-imidazol-4-yl)ethyl)piperidine-2,6-dione] as the molecule, how does the “Eosinophils in BAL” value [1, 5] read?
A: 0.89 ± 0.23*& 10^9/L

Q: What about the “Lymphocytes in BAL” value [1, 5] of the same molecule?
A: 0.70 ± 0.13* 10^9/L

Q: And the “Monocytes in BAL” value [1, 5]?
A: 0.35 ± 0.09* 10^9/L

Q: And the “Neutrophils in BAL” value [1, 5]?
A: 0.36 ± 0.09 10^9/L

Q: What about the “Cytosis in BAL” value [1, 6] of the same molecule?
A: 12.8 ± 0.2* 10^9/L

Q: What about the “Eosinophils in BAL” value [1, 6] of the same molecule?
A: 0.45 ± 0.07*& 10^9/L

Q: And the “Lymphocytes in BAL” value [1, 6]?
A: 0.10 ± 0.04& 10^9/L

Q: What about the “Monocytes in BAL” value [1, 6] of the same molecule?
A: 0.52 ± 0.092* 10^9/L

Q: And the “Neutrophils in BAL” value [1, 6]?
A: 0.19 ± 0.08 10^9/L

Q: What about the “Cytosis in BAL” value [1, 7] of the same molecule?
A: 10.5 ± 0.2*& 10^9/L

Q: What about the “Eosinophils in BAL” value [1, 7] of the same molecule?
A: 0.41 ± 0.10*& 10^9/L

Q: What about the “Lymphocytes in BAL” value [1, 7] of the same molecule?
A: 0.13 ± 0.04& 10^9/L

Q: What about the “Monocytes in BAL” value [1, 7] of the same molecule?
A: 0.43 ± 0.076* 10^9/L

Q: What about the “Neutrophils in BAL” value [1, 7] of the same molecule?
A: 0.07 ± 0.01 10^9/L

Q: What about the “Cytosis in BAL” value [1, 8] of the same molecule?
A: 14.6 ± 0.3* 10^9/L

Q: And the “Eosinophils in BAL” value [1, 8]?
A: 0.45 ± 0.12*& 10^9/L

Q: And the “Lymphocytes in BAL” value [1, 8]?
A: 0.15 ± 0.026*& 10^9/L

Q: What about the “Monocytes in BAL” value [1, 8] of the same molecule?
A: 0.7 ± 0.16* 10^9/L

Q: What about the “Neutrophils in BAL” value [1, 8] of the same molecule?
A: 0.15 ± 0.03* 10^9/L

Q: And the “Banded neutrophils in the blood” value ([2]; 0.045 mg/kg)?
A: 0.31 ± 0.10 10^9/L

Q: What about the “Basophils in the blood” value ([2]; 0.045 mg/kg) of the same molecule?
A: 0 ± 0 10^9/L

Q: And the “Cytosis in the blood” value ([2]; 0.045 mg/kg)?
A: 9.03 ± 1.40& 10^9/L

Q: What about the “Eosinophils in the blood” value ([2]; 0.045 mg/kg) of the same molecule?
A: 0.19 ± 0.04& 10^9/L

Q: And the “Lymphocytes in the blood” value ([2]; 0.045 mg/kg)?
A: 4.80 ± 0.84* 10^9/L

Q: What about the “Monocytes in the blood” value ([2]; 0.045 mg/kg) of the same molecule?
A: 0.29 ± 0.08 10^9/L

Q: What about the “Segmented neutrophils in the blood” value ([2]; 0.045 mg/kg) of the same molecule?
A: 2.92 ± 0.65 10^9/L

Q: What about the “Banded neutrophils in the blood” value ([2]; 0.14 mg/kg) of the same molecule?
A: 0.19 ± 0.05& 10^9/L

Q: And the “Basophils in the blood” value ([2]; 0.14 mg/kg)?
A: 0 ± 0 10^9/L

Q: What about the “Cytosis in the blood” value ([2]; 0.14 mg/kg) of the same molecule?
A: 9.11 ± 1.07*& 10^9/L

Q: What about the “Eosinophils in the blood” value ([2]; 0.14 mg/kg) of the same molecule?
A: 0.09 ± 0.03& 10^9/L

Q: And the “Lymphocytes in the blood” value ([2]; 0.14 mg/kg)?
A: 5.25 ± 0.89* 10^9/L

Q: What about the “Monocytes in the blood” value ([2]; 0.14 mg/kg) of the same molecule?
A: 0.33 ± 0.06* 10^9/L

Q: What about the “Segmented neutrophils in the blood” value ([2]; 0.14 mg/kg) of the same molecule?
A: 2.23 ± 0.58& 10^9/L

Q: What about the “Banded neutrophils in the blood” value ([2]; 14 mg/kg) of the same molecule?
A: 0.27 ± 0.06* 10^9/L

Q: And the “Basophils in the blood” value ([2]; 14 mg/kg)?
A: 0 ± 0 10^9/L

Q: And the “Cytosis in the blood” value ([2]; 14 mg/kg)?
A: 8.90 ± 0.25*& 10^9/L

Q: What about the “Eosinophils in the blood” value ([2]; 14 mg/kg) of the same molecule?
A: 0.13 ± 0.04& 10^9/L

Q: And the “Lymphocytes in the blood” value ([2]; 14 mg/kg)?
A: 4.45 ± 0.25* 10^9/L

Q: And the “Monocytes in the blood” value ([2]; 14 mg/kg)?
A: 0.33 ± 0.06* 10^9/L

Q: What about the “Segmented neutrophils in the blood” value ([2]; 14 mg/kg) of the same molecule?
A: 3.66 ± 0.22* 10^9/L

Q: What about the “The number of animals with moderate bronchospasm (without acute phase, with subacute phase, with breath management)” value ([3]; 0.045 mg/kg) of the same molecule?
A: 1

Q: What about the “The number of animals with moderate bronchospasm (without acute phase, with subacute phase, without breath management)” value ([3]; 0.045 mg/kg) of the same molecule?
A: 2

Q: And the “The number of animals with severe bronchospasm (in acute and subacute phase)” value (“The number … (in acute and subacute phase)” for short) ([3]; 0.045 mg/kg)?
A: 0

Q: And the “The number of animals without bronchospasm” value ([3]; 0.045 mg/kg)?
A: 5

Q: What about the “The number of animals with moderate bronchospasm (without acute phase, with subacute phase, with breath management)” value ([3]; 0.14 mg/kg) of the same molecule?
A: 1

Q: And the “The number of animals with moderate bronchospasm (without acute phase, with subacute phase, without breath management)” value ([3]; 0.14 mg/kg)?
A: 0

Q: What about the “The number … (in acute and subacute phase)” value ([3]; 0.14 mg/kg) of the same molecule?
A: 0

Q: What about the “The number of animals without bronchospasm” value ([3]; 0.14 mg/kg) of the same molecule?
A: 7

Q: What about the “The number of animals with moderate bronchospasm (without acute phase, with subacute phase, with breath management)” value ([3]; 14 mg/kg) of the same molecule?
A: 0

Q: What about the “The number of animals with moderate bronchospasm (without acute phase, with subacute phase, without breath management)” value ([3]; 14 mg/kg) of the same molecule?
A: 2

Q: And the “The number … (in acute and subacute phase)” value ([3]; 14 mg/kg)?
A: 1

Q: And the “The number of animals without bronchospasm” value ([3]; 14 mg/kg)?
A: 5

Q: And the “Number of nose scratchings/2 hours” value [4]?
A: 13.9 ± 2.6 &

Q: What about the “Number of sneezes/2 hours” value [4] of the same molecule?
A: 5.9 ± 1.1 &
